Measured values as given in publication PMC10747250, “Structure-Based Optimization of 1,2,4-Triazole-3-Thione Derivatives: Improving Inhibition of NDM-/VIM-Type Metallo-β-Lactamases and Synergistic Activity on Resistant Bacteria” (Pharmaceuticals, 2023).
Several values for one entry are separate records, joined by “and”; a condition that tells them apart may be missing. Equal entries are not always repeated. Where two headings read alike, the source gives them in different places.

Experiments:
NDM-1 = target: T1, NDM-1 (Klebsiella pneumoniae, UniProt C7C422); assay: NDM-1 spectrophotometric enzyme inhibition assay (meropenem hydrolysis); type: biochemical; design: inhibition: dose or concentration left out as unconfirmed; settings: for inhibition: 5 min, read-out: % Inib vs NDM-1; for IC50: substrate MEM 57 μM, 5 min incubation, triplicate, NI: no inhibition (<30% inhibition at 100 µM); for IC50 / Ki: 25 °C; for Ki: substrate MEM; for NDM-1 inhibitory activity: at 100 μM
T1 construct: made in house; host or cells: E. coli BL21(DE3)
T1 sequence (C7C422 29-270, looked up, species assumed): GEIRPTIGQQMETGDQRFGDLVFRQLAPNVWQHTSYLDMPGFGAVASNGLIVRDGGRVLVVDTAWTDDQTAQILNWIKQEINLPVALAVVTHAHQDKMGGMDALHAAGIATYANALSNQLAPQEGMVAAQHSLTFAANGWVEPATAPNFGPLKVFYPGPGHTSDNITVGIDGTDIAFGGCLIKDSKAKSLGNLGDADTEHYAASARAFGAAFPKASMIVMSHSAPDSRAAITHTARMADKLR
Experimental: (§1) The synthesized compounds were all tested for their inhibitory activity against targeted MBLs using a spectrophotometric assay (Table S2). After an initial validation at fixed concentration, compounds yielding > 0% inhibition were profiled in dose–response experiments to determine their IC50. The IC50 values were determined by measuring the rate of hydrolysis of the reporter substrate meropenem MEM ([S] = 57 μM; Km = 63.4 μM) in the presence of five different inhibitor concentrations. Assays were run after a 5 min incubation. The Ki was either calculated by the Cheng–Prusoff equation assuming competitive inhibition, or, for selected inhibitors, fully determined with Dixon plots (Figure S1).
(§2) The percentage of inhibition (%Inh) of 1,2,4-triazole derivatives was determined against a panel of subclass B1 MBLs (NDM-1, VIM-1, VIM-2, and IMP-1). Each compound was initially tested at a fixed concentration for inhibitory activity vs. the targeted enzymes. For the best active inhibitors, half-maximal inhibitory concentration (IC50) and Ki values were determined. Reactions were monitored using a Jasco V-730 spectrophotometer ( JASCO EUROPE S.R.L. Via Luigi Cadorna 1 23894 Cremella (LC) Italy) using nitrocefin or meropenem as reported substrates. Compounds were dissolved in dimethyl sulfoxide (DMSO) and stored at −20 °C. For VIM-1, VIM-2, and IMP-1MBLs, assays were conducted in 20 mM of HEPES, 100 mM of NaCl, and ZnSO4 at 10 µM at pH 7.4 at 25 °C with 0.01% v/v Triton X-100 to avoid compound aggregation and promiscuous inhibition. For NDM-1, assays were conducted in 20 mM of TRIS HCl + 150 mM of NaCl at pH 7.5 at 25°C with 0.01% v/v Triton X-100 to avoid aggregation.
(§3) For all targeted proteins, the reaction was typically initiated by adding the substrate to the reaction buffer last, after a 5 min preincubation. After brief shaking, the reading was performed for a total kinetic time of 240 s at 25 °C. The IC50 values were determined by measuring the rate of hydrolysis of the reporter substrate in the presence of five different inhibitor concentrations. The binding affinity Ki was generally estimated from the determined IC50 using the Cheng–Prusoff equation as per competitive inhibition. For the best inhibitors, the mechanism of inhibition and Ki were determined with a Dixon plot (CP 22, CP 35, CP 56, and CP 57 against NDM-1; compound CP 57 against VIM-2).

VIM-1 = VIM-1 (Pseudomonas aeruginosa, UniProt A0A0F7KYQ8); assay: VIM-1 spectrophotometric enzyme inhibition assay (nitrocefin hydrolysis); type: biochemical; design: dose or concentration left out as unconfirmed; settings: 5 min, read-out: % Inib vs VIM-1
Experimental: as §1, §2
Table S2. The inhibitory activity of 4-amino-4H-1,2,4-triazole-3-thiol derivatives discussed here. […]
Tests were conducted at 25° C by following the absorbance variation observed upon reporter substrate (Meropenem 57 μM for NDM-1, 17 μM for VIM-2) or Nitrocefin (23 μM for VIM-1). The percentage of inhibition is reported except when ≤ 15% and in this case is indicated by NI “no inhibition”. Compounds concentration was […] vs NDM-1. Assays were run after a 5-minutes incubation. […]

VIM-2 = VIM-2 (Escherichia coli, UniProt Q5U7L7); assay: VIM-2 spectrophotometric enzyme inhibition assay (meropenem hydrolysis); type: biochemical; settings: 25 °C; for % Inib vs VIM-2: meropenem 17 μM, 5 min incubation, NI = no inhibition (≤15%)
Experimental: as §1, with “The IC50 values were determined by measuring the rate of hydrolysis of the reporter substrate meropenem MEM ([S] = 57 μM; Km = 63.4 μM) in the presence of five different inhibitor concentrations.” left out
as §2, §3

[1] = tested on: K. pneumoniae VA-416/02 (VIM-4); assay: Synergy with meropenem, broth microdilution MIC; type: cell-based
Experimental: (§4) The potential synergistic activity of the three best inhibitors (CP 35, CP 56, and CP 57) was tested using the broth microdilution method on six MBL-producing multidrug-resistant clinical isolates. […] Although apparently modest, this increase in synergistic activity represents a significant improvement over the previous generation of triazole-thione β-lactamase inhibitors previous described by our group.

[2] = tested on: P. aeruginosa VA-182/00 (VIM-2); assay: Synergy with meropenem, broth microdilution MIC; type: cell-based, Pseudomonas aeruginosa
Experimental: as §4

[3] = tested on: six MBL-producing multidrug-resistant clinical isolates; assay: Growth inhibition by the compound tested alone; type: cell-based; settings: 32 μg/mL, without MEM
Experimental: as §4

[4] = tested on: K. pneumoniae SI-1072 (NDM-1); assay: Synergy with meropenem, broth microdilution MIC; type: cell-based
Experimental: as §4

[5] = tested on: K. pneumoniae SI-518 (NDM-1); assay: Synergy with meropenem, broth microdilution MIC; type: cell-based
Experimental: as §4

MBLs = target: MBLs; design: method as in PMID 36450011, PMID 31871094, PMID 32482673; settings: cited from earlier work
[6] = Ki determined with Dixon plots, read-out: NDM-1 Ki (Dixon plots)
[7] = compound 32 μg/mL, VIM-4-producing K. pneumoniae
[8] = Ki calculated from IC50 as per competitive inhibition (Cheng–Prusoff), read-out: NDM-1 Ki (calculated from IC50)
[9] = compound 32 μg/mL, NDM-1-producing K. pneumoniae (strain not given)
[10] = Klebsiella pneumoniae, MEM alone (Cpd: None)

FC(F)(F)c1ccccc1/C=N/n1cnnc1S [CP 17, (E)-4-((2-(Trifluoromethyl)benzylidene)amino)-4H-1,2,4-triazole-3-thiol]
inhibition (NDM-1): 51% | IC50 (NDM-1): > 100 µM and 226 µM | inhibition (VIM-1): 46%

Sc1nncn1/N=C/c1cccc2ccccc12 [CP 18, (E)-4-((Naphthalen-1-ylmethylene)amino)-4H-1,2,4-triazole-3-thiol]
inhibition (NDM-1): > 100% | IC50 (NDM-1): 52 ± 7.5 µM | inhibition (VIM-1): 33%

COc1ccc(/C=N/n2cnnc2S)cc1 [CP 19, (E)-4-((4-Methoxybenzylidene)amino)-4H-1,2,4-triazole-3-thiol]
inhibition (NDM-1): 24% | inhibition (VIM-1): 15%

COc1cccc(/C=N/n2cnnc2S)c1 [CP 20, (E)-4-((3-Methoxybenzylidene)amino)-4H-1,2,4-triazole-3-thiol]
inhibition (NDM-1): 40% | inhibition (VIM-1): 14%

COc1ccccc1/C=N/n1cnnc1S [CP 21, (E)-4-((2-Methoxybenzylidene)amino)-4H-1,2,4-triazole-3-thiol]
inhibition (NDM-1): 38% | inhibition (VIM-1): 32%

Sc1nncn1/N=C/c1cccc(Br)c1 [CP 22, (E)-4-((3-Bromobenzylidene)amino)-4H-1,2,4-triazole-3-thiol]
inhibition (NDM-1): 68% | IC50 (NDM-1): 88.5 ± 3.7 µM | Ki (NDM-1; [6]): 42.7 µM | inhibition (VIM-1): 46%

Sc1nncn1/N=C/c1ccccc1Br [CP 23, (E)-4-((2-Bromobenzylidene)amino)-4H-1,2,4-triazole-3-thiol]
inhibition (NDM-1): 67% | IC50 (NDM-1): 83 ± 3.3 µM

Sc1nncn1/N=C/c1ccc(Br)cc1 [CP 24, (E)-4-((4-Bromobenzylidene)amino)-4H-1,2,4-triazole-3-thiol]
inhibition (NDM-1): 64% | IC50 (NDM-1): 83.1 ± 2.7 µM | inhibition (VIM-1): 28%

O=C(O)c1ccccc1/C=N/n1cnnc1S [CP 29, (E)-2-(((3-Mercapto-4H-1,2,4-triazol-4-yl)imino)methyl)benzoic acid]
NDM-1 inhibitory activity (NDM-1): no inhibitory activity | IC50 (NDM-1): > 100 µM | inhibition (VIM-1): 17%

O=C(O)c1ccc(/C=N/n2cnnc2S)cc1 [CP 30, (E)-4-(((3-Mercapto-4H-1,2,4-triazol-4-yl)imino)methyl)benzoic acid]
NDM-1 inhibitory activity (NDM-1): no inhibitory activity | IC50 (NDM-1): > 100 µM | inhibition (VIM-1): 18%

N#Cc1ccccc1/C=N/n1cnnc1S [CP 31, (E)-2-(((3-Mercapto-4H-1,2,4-triazol-4-yl)imino)methyl)benzonitrile]
inhibition (NDM-1): 10%

Sc1nncn1/N=C/c1ccccn1 [CP 32, (E)-4-((Pyridin-2-ylmethylene)amino)-4H-1,2,4-triazole-3-thiol]
inhibition (NDM-1): 20% | inhibition (VIM-1): 17%

FC(F)(F)c1nnc(S)n1/N=C/c1cccc(Br)c1 [CP 35, (E)-4-((3-Bromobenzylidene)amino)-5-(trifluoromethyl)-4H-1,2,4-triazole-3-thiol]
Ki (NDM-1; [6]): 25.8 µM | % Inib vs VIM-2 (VIM-2): 53% | synergistic activity with MEM [1, 7]: no synergistic activity at all | synergistic activity with MEM ([2]; compound 32 μg/mL, VIM-2 P. aeruginosa): no synergistic activity at all | growth inhibition, compound tested alone [3]: no growth inhibition

O=C(O)c1ccccc1/C=N/n1c(S)nnc1C(F)(F)F [CP 45, (E)-2-(((3-Mercapto-5-(trifluoromethyl)-4H-1,2,4-triazol-4-yl)imino)methyl)benzoic acid]
Ki (NDM-1; [8]): 83 µM

FC(F)(F)c1nnc(S)n1/N=C/c1nn[nH]n1 [CP 46, (E)-4-(((2H-Tetrazol-5-yl)methylene)amino)-5-(trifluoromethyl)-4H-1,2,4-triazole-3-thiol]
% Inib vs VIM-2 (VIM-2): 42%

FC(F)(F)c1ccc(-c2nnc(S)n2/N=C/c2cccc(Br)c2)cc1 [CP 55, (E)-4-((3-Bromobenzylidene)amino)-5-(4-(trifluoromethyl)phenyl)-4H-1,2,4-triazole-3-thiol]
Ki (NDM-1; [8]): 220 µM

O=C(O)c1cccc(/C=N/n2c(S)nnc2-c2ccc(C(F)(F)F)cc2)c1 [CP 56, (E)-3-(((3-Mercapto-5-(4-(trifluoromethyl)phenyl)-4H-1,2,4-triazol-4-yl)imino)methyl)benzoic acid]
% Inib vs VIM-2 (VIM-2): 42% | synergistic activity with MEM [1, 7]: detectable synergistic effect | growth inhibition, compound tested alone [3]: no growth inhibition

O=C(O)c1ccccc1/C=N/n1c(S)nnc1-c1ccc(C(F)(F)F)cc1 [CP 57, (E)-2-(((3-Mercapto-5-(4-(trifluoromethyl)phenyl)-4H-1,2,4-triazol-4-yl)imino)methyl)benzoic acid]
Ki (NDM-1; [6]): 5.59 µM and 5.6 µM | % Inib vs VIM-2 (VIM-2): > 100% | Ki (VIM-2; substrate MEM, Ki determined with Dixon plot, read-out: VIM-2 Ki (Dixon plots)): 4.14 µM and 4.1 µM | reduction of meropenem MIC [4, 9]: four-fold | reduction of meropenem MIC [5, 9]: four-fold | reduction of meropenem MIC [1, 7]: four-fold | synergistic activity with MEM [1, 7]: detectable synergistic effect | growth inhibition, compound tested alone [3]: no growth inhibition

FC(F)(F)c1ccc(-c2nnc(S)n2/N=C/c2nn[nH]n2)cc1 [CP 58, (E)-4-(((2H-Tetrazol-5-yl)methylene)amino)-5-(4-(trifluoromethyl)phenyl)-4H-1,2,4-triazole-3-thiol]
% Inib vs VIM-2 (VIM-2): 53%

C[C@@H](O)[C@H]1C(=O)N2C(C(=O)O)=C(S[C@@H]3CN[C@H](C(=O)N(C)C)C3)[C@H](C)[C@H]12 [MEM, meropenem, reference compound]
MIC [4, 10]: 128 µg/mL | MIC [5, 10]: 128 µg/mL | MIC [1, 10]: 16 µg/mL | MIC ([2]; Pseudomonas aeruginosa, MEM alone (Cpd: None)): 256 µg/mL

O=C(O)c1c(F)ccc2c1OB(O)[C@@H]1C[C@H]21 [QPX7728]
Ki values (MBLs): low nanomolar range

NCCN[C@H]1CC[C@H](CC(=O)N[C@H]2Cc3cccc(C(=O)O)c3OB2O)CC1 [taniborbactam]
Ki values (MBLs): low nanomolar range
